What all share (set-up): scale not given: the % may be the effect or the level left
The target in assay [1] is T1, Homeodomain-interacting protein kinase 4 (Homo sapiens) (UniProt Q8NE63).
T1 sequence (whole entry): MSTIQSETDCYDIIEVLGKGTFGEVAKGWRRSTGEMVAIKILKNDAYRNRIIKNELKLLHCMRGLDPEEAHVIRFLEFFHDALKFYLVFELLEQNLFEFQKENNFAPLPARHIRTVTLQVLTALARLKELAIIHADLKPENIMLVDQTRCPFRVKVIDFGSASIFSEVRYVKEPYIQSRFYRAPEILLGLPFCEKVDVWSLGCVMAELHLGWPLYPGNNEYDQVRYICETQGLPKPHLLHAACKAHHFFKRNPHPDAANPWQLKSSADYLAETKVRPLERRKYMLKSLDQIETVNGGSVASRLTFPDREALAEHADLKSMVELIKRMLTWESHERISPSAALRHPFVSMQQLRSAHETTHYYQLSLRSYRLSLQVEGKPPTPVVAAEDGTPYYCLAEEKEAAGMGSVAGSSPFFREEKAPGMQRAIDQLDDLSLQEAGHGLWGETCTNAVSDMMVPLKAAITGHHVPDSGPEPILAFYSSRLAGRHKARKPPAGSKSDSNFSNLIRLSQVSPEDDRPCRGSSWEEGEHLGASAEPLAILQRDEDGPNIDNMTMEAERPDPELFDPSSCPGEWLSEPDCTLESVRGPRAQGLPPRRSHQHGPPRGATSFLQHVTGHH
Description: Inhibition of human HIPK4 assessed as enzyme activity at 1 uM using myelin basic protein as substrate preincubated for 20 mins followed by [gamma-33P]-ATP addition and measured after 120 mins by radiometric Hot-SpotSM Kinase assay relative to control.

In assay [2] the target is T2, Serine/threonine-protein kinase LATS1 (Homo sapiens) (UniProt O95835).
T2 sequence (whole entry): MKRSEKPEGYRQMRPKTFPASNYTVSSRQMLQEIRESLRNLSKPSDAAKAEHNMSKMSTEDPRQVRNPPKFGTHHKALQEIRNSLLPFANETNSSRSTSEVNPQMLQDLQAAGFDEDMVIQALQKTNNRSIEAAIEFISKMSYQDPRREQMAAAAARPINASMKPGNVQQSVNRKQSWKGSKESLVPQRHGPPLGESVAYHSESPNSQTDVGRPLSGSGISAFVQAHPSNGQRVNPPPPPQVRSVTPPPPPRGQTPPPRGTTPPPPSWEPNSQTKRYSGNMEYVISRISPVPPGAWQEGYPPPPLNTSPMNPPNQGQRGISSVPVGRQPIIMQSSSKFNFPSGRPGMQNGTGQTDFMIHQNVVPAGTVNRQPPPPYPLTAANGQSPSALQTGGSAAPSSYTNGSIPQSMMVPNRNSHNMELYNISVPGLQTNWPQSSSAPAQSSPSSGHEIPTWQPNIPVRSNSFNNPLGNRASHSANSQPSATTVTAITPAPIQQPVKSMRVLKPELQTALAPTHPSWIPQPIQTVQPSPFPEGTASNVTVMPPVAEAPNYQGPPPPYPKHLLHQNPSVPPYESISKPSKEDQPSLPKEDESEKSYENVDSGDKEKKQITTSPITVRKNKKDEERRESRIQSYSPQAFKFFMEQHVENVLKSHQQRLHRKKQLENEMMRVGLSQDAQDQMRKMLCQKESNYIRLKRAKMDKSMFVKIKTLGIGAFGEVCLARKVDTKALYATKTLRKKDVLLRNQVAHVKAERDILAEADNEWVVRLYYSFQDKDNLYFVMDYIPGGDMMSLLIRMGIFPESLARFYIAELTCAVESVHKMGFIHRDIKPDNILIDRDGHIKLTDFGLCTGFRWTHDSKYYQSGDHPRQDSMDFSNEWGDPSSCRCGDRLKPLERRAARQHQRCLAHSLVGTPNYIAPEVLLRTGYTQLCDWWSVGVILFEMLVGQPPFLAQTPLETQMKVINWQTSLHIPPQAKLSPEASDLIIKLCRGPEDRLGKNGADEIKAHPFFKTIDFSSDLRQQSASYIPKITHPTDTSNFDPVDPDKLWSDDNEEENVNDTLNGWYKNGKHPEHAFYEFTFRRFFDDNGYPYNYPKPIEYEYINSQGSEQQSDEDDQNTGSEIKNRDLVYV
Description: Inhibition of human LATS1 assessed as enzyme activity at 1 uM using KKRNRRLSVA as substrate preincubated for 20 mins followed by [gamma-33P]-ATP addition and measured after 120 mins by radiometric Hot-SpotSM Kinase assay relative to control.

Assay [3] has as its target Serine/threonine-protein kinase tousled-like 2 (Homo sapiens) (UniProt Q86UE8). Description: Inhibition of human TLK2 assessed as enzyme activity at 1 uM using casein as substrate preincubated for 20 mins followed by [gamma-33P]-ATP addition and measured after 120 mins by radiometric Hot-SpotSM Kinase assay relative to control.
The target in assay [4] is T3, Activin receptor type-1 (Homo sapiens) (UniProt Q04771).
T3 sequence (whole entry): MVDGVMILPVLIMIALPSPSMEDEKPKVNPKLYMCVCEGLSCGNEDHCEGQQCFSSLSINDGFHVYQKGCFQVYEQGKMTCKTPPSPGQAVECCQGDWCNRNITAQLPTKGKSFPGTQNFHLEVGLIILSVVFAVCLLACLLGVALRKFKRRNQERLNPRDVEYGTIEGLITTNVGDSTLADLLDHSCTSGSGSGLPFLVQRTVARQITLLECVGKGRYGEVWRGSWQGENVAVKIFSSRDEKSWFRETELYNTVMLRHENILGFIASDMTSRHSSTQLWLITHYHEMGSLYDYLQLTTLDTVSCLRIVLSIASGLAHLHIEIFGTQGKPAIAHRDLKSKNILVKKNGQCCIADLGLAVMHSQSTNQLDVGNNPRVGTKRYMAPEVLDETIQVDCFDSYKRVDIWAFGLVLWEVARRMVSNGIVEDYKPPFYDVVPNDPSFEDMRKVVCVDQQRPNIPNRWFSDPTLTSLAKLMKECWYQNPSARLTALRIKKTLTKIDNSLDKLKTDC
Description: Inhibition of human ALK2 assessed as enzyme activity at 1 uM using casein as substrate preincubated for 20 mins followed by [gamma-33P]-ATP addition and measured after 120 mins by radiometric Hot-SpotSM Kinase assay relative to control.

The target in assay [5] is Cyclin-dependent kinase 2/cyclin E1 (Homo sapiens) (UniProt P24864+P24941). Description: Inhibition of human CDK2/cyclin E assessed as enzyme activity at 1 uM using RB Protein as substrate preincubated for 20 mins followed by [gamma-33P]-ATP addition and measured after 120 mins by radiometric Hot-SpotSM Kinase assay relative to control. Format: protein-complex assay.
Assay [6] has as its target Platelet-derived growth factor receptor alpha (Homo sapiens) (UniProt P16234). Description: Inhibition of human PDGFRa assessed as enzyme activity at 1 uM using poly[Glu:Tyr] (4:1) as substrate preincubated for 20 mins followed by [gamma-33P]-ATP addition and measured after 120 mins by radiometric Hot-SpotSM Kinase assay relative to control.

Chain of Serine/threonine-protein kinase tousled-like 2 (Homo sapiens) (Q86UE8 whole entry, looked up): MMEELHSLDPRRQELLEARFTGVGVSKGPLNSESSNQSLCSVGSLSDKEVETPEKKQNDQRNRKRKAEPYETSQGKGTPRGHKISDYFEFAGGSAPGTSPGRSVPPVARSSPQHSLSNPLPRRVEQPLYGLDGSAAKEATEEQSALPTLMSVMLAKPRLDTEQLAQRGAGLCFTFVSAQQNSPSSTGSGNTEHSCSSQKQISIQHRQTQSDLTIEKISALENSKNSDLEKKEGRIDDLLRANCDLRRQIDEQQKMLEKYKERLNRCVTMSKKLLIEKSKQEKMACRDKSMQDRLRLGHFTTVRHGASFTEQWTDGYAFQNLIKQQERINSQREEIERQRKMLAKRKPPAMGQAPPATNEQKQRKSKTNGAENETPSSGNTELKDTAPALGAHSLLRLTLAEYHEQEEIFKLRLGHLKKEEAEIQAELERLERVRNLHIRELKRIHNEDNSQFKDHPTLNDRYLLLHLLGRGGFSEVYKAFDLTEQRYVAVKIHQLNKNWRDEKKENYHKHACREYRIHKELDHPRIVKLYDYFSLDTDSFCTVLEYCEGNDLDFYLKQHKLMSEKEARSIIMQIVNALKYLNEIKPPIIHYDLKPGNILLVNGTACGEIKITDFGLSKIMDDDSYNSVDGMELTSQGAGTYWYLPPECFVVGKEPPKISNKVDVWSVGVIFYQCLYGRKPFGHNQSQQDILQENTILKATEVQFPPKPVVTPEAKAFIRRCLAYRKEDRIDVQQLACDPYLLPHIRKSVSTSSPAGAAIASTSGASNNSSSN
Chain of Platelet-derived growth factor receptor alpha (Homo sapiens) (P16234 whole entry): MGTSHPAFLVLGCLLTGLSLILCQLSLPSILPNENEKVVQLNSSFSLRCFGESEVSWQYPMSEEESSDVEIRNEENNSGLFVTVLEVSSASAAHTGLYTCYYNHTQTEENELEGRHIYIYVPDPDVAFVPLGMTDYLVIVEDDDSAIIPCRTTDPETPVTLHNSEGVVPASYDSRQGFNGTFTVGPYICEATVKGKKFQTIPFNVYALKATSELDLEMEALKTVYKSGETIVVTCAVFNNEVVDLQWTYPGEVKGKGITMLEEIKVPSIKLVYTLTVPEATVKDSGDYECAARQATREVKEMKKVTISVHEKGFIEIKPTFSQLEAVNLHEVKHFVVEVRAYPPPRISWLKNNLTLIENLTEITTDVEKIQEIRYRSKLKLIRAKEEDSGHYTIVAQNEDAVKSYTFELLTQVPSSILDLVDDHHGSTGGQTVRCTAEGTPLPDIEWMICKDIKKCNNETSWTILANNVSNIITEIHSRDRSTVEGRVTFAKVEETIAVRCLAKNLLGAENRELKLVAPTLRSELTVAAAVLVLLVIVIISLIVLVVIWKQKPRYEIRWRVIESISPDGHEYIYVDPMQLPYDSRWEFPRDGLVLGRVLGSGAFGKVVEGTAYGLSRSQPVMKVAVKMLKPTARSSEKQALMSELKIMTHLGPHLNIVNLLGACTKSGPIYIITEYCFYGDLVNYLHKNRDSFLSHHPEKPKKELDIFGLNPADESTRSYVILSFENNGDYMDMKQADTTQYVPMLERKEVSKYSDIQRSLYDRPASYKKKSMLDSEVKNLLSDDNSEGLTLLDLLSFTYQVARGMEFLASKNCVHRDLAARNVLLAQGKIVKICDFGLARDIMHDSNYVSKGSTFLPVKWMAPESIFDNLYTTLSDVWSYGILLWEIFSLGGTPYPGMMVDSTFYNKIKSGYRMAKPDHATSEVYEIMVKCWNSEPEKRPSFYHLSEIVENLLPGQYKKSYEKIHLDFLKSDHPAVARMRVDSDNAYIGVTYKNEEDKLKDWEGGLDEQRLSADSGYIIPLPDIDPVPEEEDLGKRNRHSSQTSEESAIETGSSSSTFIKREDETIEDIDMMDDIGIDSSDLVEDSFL

As for `C[C@H](Nc1ncnc2nc[nH]c12)c1cc2cccc(Cl)c2c(=O)n1-c1ccccc1`, the Activity in assay [1] is 98.9%; in assay [2], 99.8%; in assay [3] it was 97.3%; in assay [4], 93.6%; in assay [5], 95.6%; in assay [6], 90.1%.
For the compound `CC[C@H](Nc1ncnc2[nH]cnc12)c1nc2cccc(F)c2c(=O)n1-c1ccccc1`, the Activity was found to be 92.9% in assay [1]; 95.4% in assay [2]; 94% in assay [3]; 94% in assay [4]; 96.2% in assay [5]; 93.8% in assay [6].
Consider `CC(C)Oc1ccc(-c2nn([C@@H](C)c3oc4ccc(F)cc4c(=O)c3-c3cccc(F)c3)c3ncnc(N)c23)cc1F` [UMBRALISIB], for which the Activity stood at 113% in assay [1]; 96.3% in assay [2]; 96.3% in assay [3]; 95.5% in assay [4]; 99% in assay [5]; 100% in assay [6].

These data come from ChEMBL document CHEMBL5715954, “Silencing c-Myc translation as a therapeutic strategy through targeting PI3Kδ and CK1ε in hematological malignancies” (Blood, 2017).
